Measured values: patent publication US20210269426A1, “MICROBIOCIDAL OXADIAZOLE DERIVATIVES” (SYNGENTA CROP PROTECTION AG, priority 2018, published 2021)

Columns and labels:
[1] = tested on: Glomerella lagenarium (Colletotrichum lagenarium); experiment: Glomerella lagenarium (Colletotrichum lagenarium) liquid culture / cucumber / preventative (anthracnose); format: cell-based; conditions: Colletotrichum orbiculare; 20 ppm in the applied formulation; liquid culture in PDB, 24° C., 3 to 4 days after application; read-out: disease control (inhibition of growth, photometric)
Experimental: Mycelia fragments or conidia suspensions of a fungus prepared either freshly from liquid cultures of the fungus or from cryogenic storage, are directly mixed into nutrient broth. DMSO solutions of the test compound (max. 10 mg/ml) are diluted with 0.025% Tween20 by a factor of 50 and 10 μl of this solution is pipetted into a microtiter plate (96-well format). The nutrient broth containing the fungal spores/mycelia fragments is then added to give an end concentration of the tested compound. The test plates are incubated in the dark at 24° C. and 96% relative humidity. The inhibition of fungal growth is determined photometrically after 2 to 7 days, depending on the pathosystem, and percent antifungal activity relative to the untreated check is calculated.
Conidia of the fungus from cryogenic storage are directly mixed into nutrient broth (PDB—potato dextrose broth). After placing a (DMSO) solution of test compound into a microtiter plate (96-well format), the nutrient broth containing the fungal spores is added. The test plates are incubated at 24° C. and the inhibition of growth is measured photometrically 3 to 4 days after application.
The following compounds at 20 ppm in the applied formulation give at least 80% disease control in this test when compared to untreated control under the same conditions, which show extensive disease development.

[2] = tested on: Puccinia recondita f. Sp. Tritici; experiment: Puccinia recondita f. sp. tritici / wheat / leaf disc preventative (brown rust); format: in vivo; conditions: foliar, 200 ppm in the applied formulation, wheat leaf segments cv. Kanzler, inoculated 1 day after application, assessed 7 to 9 days after application, read-out: disease control
Experimental: Leaf disks or leaf segments of various plant species are cut from plants grown in a greenhouse. The cut leaf disks or segments are placed in multiwell plates (24-well format) onto water agar. The leaf disks are sprayed with a test solution before (preventative) or after (curative) inoculation. Compounds to be tested are prepared as DMSO solutions (max. 10 mg/ml) which are diluted to the appropriate concentration with 0.025% Tween20 just before spraying. The inoculated leaf disks or segments are incubated under defined conditions (temperature, relative humidity, light, etc.) according to the respective test system. A single evaluation of disease level is carried out 3 to 14 days after inoculation, depending on the pathosystem. Percent disease control relative to the untreated check leaf disks or segments is then calculated. Wheat leaf segments cv. Kanzler were placed on agar in multiwell plates (24-well format) and sprayed with the formulated test compound diluted in water. The leaf disks were inoculated with a spore suspension of the fungus 1 day after application. The inoculated leaf segments were incubated at 19° C. and 75% relative humidity (rh) under a light regime of 12 hours light/12 hours darkness in a climate cabinet and the activity of a compound was assessed as percent disease control compared to untreated when an appropriate level of disease damage appears in untreated check leaf segments (7 to 9 days after application). The following compounds at 200 ppm in the applied formulation give at least 80% disease control in this test when compared to untreated control leaf disks under the same conditions, which show extensive disease development.

| Compound | melting point [°C] | inhibition at 20 ppm [1] [%] | pest or weed control at 200 ppm [2] [%] |
| --- | --- | --- | --- |
| COCCNC(=O)C(=O)c1ccc(-c2noc(C(F)(F)F)n2)s1 [Compound 1.2, N-(2-methoxyethyl)-2-oxo-2-[5-[5-(trifluoromethyl)-1,2,4-oxadiazol-3-yl]-2-thienyl]acetamide] | 106 to 107.1 | ≥ 80 | ≥ 80 |
| CCNC(=O)C(=O)c1ccc(-c2noc(C(F)(F)F)n2)s1 [Compound 1.6, N-ethyl-2-oxo-2-[5-[5-(trifluoromethyl)-1,2,4-oxadiazol-3-yl]-2-thienyl]acetamide] | 142.7 to 144.6 | ≥ 80 | ≥ 80 |
| O=C(NCc1ccccc1Cl)C(=O)c1ccc(-c2noc(C(F)(F)F)n2)s1 [Compound 1.1, N-[(2-chlorophenyl)methyl]-2-oxo-2-[5-[5-(trifluoromethyl)-1,2,4-oxadiazol-3-yl]-2-thienyl]acetamide] | 94 to 95.2 | ≥ 80 | ≥ 80 |
| CNC(=O)C(=O)c1ccc(-c2noc(C(F)(F)F)n2)s1 [Compound 1.7, N-methyl-2-oxo-2-[5-[5-(trifluoromethyl)-1,2,4-oxadiazol-3-yl]-2-thienyl]acetamide] | 96.2 to 98.7 | ≥ 80 | ≥ 80 |
| CONC(=O)C(=O)c1ccc(-c2noc(C(F)(F)F)n2)s1 [Compound 1.5, N-methoxy-2-oxo-2-[5-[5-(trifluoromethyl)-1,2,4-oxadiazol-3-yl]-2-thienyl]acetamide] | 109.7 to 112.1 | ≥ 80 | ≥ 80 |
| CN(C)C(=O)C(=O)c1ccc(-c2noc(C(F)(F)F)n2)s1 [Compound 1.3, N,N-dimethyl-2-oxo-2-[5-[5-(trifluoromethyl)-1,2,4-oxadiazol-3-yl]-2-thienyl]acetamide] | 88.4 to 89.4 | ≥ 80 | ≥ 80 |
| O=C(NC1CC1)C(=O)c1ccc(-c2noc(C(F)(F)F)n2)s1 [Compound 1.8, N-cyclopropyl-2-oxo-2-[5-[5-(trifluoromethyl)-1,2,4-oxadiazol-3-yl]-2-thienyl]acetamide] | 122.1 to 126.7 | ≥ 80 | ≥ 80 |
| CON(C)C(=O)C(=O)c1ccc(-c2noc(C(F)(F)F)n2)s1 [Compound 1.4, N-methoxy-N-methyl-2-oxo-2-[5-[5-(trifluoromethyl)-1,2,4-oxadiazol-3-yl]-2-thienyl]acetamide] |  | ≥ 80 | ≥ 80 |
